One data set concerns subjects with diabetes. Put plainly: Example 1/2: multicenter double-blind placebo-controlled 96 week trial, seated office blood pressure and blood-pressure TEAEs. In kind it is in vivo, human. As for the experimental part:
In a multicenter double-blind placebo-controlled trial, subjects with diabetes were administered Compound 1, 20 mg per day or placebo for 96 weeks. The blood pressure of resting seated subjects was measured at every office visit. Although the study population was not specifically recruited to contain participants with hypertension, a fraction of the population was affected by the disease and the mean baseline systolic blood pressure of the entire study population was 127 mm Hg. The effects of Compound 1 and placebo on systolic and diastolic blood pressure as a function of time are shown in FIG. 5 (systolic) and FIG. 6 (diastolic).
A treatment emergent adverse event (TEAE) is an adverse event that develops during or immediately following the period of exposure to the investigational product in a clinical trial. An adverse event is any event that represents an unfavorable change in the health of the individual that is clinically significant—it may represent a new condition or status or materially worsened pre-existing condition. In the clinical trial of Example 1, hypertension was recorded as a TEAE in 2 subjects that had been administered Compound 1 and in 5 subjects administered placebo. […] One episode of hypotension was observed among subjects administered Compound 1 and none among subjects administered placebo. The lower incidence of hypertensive TEAEs and the single episode of hypotension are consistent with the antihypertensive effect of Compound 1. In addition, the observation of only a single episode of hypotension is notable because the mean systolic blood pressure at baseline was only 127 mm Hg, well below the 140 mm Hg level that demarks a widely adopted standard for the diagnosis of hypertension.

For data set [1], the system named is spontaneously hypertensive rat, stroke prone strain (SHRSP). Conditions: previously reported (Zhang 2011); cited from earlier work.
The subject of data set [2] is subjects with seated office systolic blood pressure of ≥140 mm Hg and <180 mm Hg. As to the kind of experiment: Study THR-1442-C-603A: double-blind placebo-controlled 12 week trial in a hypertensive population not pre-selected for diabetes. In kind it is in vivo, human. On the procedure:
A qualified ABPM record contained no fewer than 64 measurements over an approximately 24 h period and a mean SBP≥135 mm Hg.
A total of 678 subjects were randomly assigned to the active arm or to the placebo arm.
The study was conducted in the United States at multiple clinical sites. The randomized population consisted of 409 male and 269 female participants with a mean age ±standard deviation of 58.5±11.74. […] 64.7% were self-declared Caucasian, 29.9% African-American, 1.6% Asian, 0.3% Native American/Native Alaskan, 0.1% Native Hawaiian/Other Pacific Islander, 1.0% Multiracial and 2.2% Other. 8.1% self-declared Hispanic or Latino ethnicity. The study population was obese, having a median body mass index (kg m^−2) of 31.9 and a mean weight of 98.3±35.0 kg. A history of diagnosed diabetes was elicited from 24.3% of the subjects and 18.0% were presently unmedicated for hypertension.
The baseline 24 h average SBP from ABPM was 147.3±9.93 and the DBP was 84.5±9.65. 11.7% of the subjects produced a baseline ABPM SBP≥160 mm Hg.
Following self-administration of investigational product for 12 weeks, subjects underwent ABPM to assess the potential treatment effect. After the first 300 subjects had completed 12 weeks of participation, the mean SBP was 140.90, corresponding to a decrease from baseline in the entire population of 6.4 mm Hg.
A total of 678 subjects were randomized, of whom 5 were excluded for major protocol violations. Of the remaining 673 participants, 307 out of 334 in the bexagliflozin arm and 319 out of 339 in the placebo arm completed the study. The arms were well-balanced in general by demographic characteristics. The population was predominantly male (60.5%) and Caucasian (65.2%) with the remainder by race predominantly of African heritage (29.4%). Participants of Latino ethnicity comprised 8.0% of the total. The mean age was 58.9 years and 24.8% were diabetic. The mean subject was obese with a BMI of 32.6 kg/m^2, and 81% reported at least one prescription for anti-hypertensive medication. ACE inhibitors and ARBs were the most commonly encountered agents. Calcium channel blockers, diuretics and β-blockers were the next most commonly encountered, in that order. The mean seated office blood pressure was 156/91 with a heart rate of 73. The mean ABPM at baseline was 147.5/85.0. Nearly all participants had preserved renal function.

The mark [3] stands for this setting: subjects with systolic blood pressure of 140 mm Hg or above at study entry, 20 mg per day, persisted for duration of trial.

Turning to `OC[C@H]1O[C@@H](c2ccc(Cl)c(Cc3ccc(OCCOC4CC4)cc3)c2)[C@H](O)[C@@H](O)[C@@H]1O` [Compound 1, (2S,3R,4R,5S,6R)-2-(4-chloro-3-(4-(2-cyclopropoxyethoxy)benzyl)phenyl)-6-(hydroxymethyl)tetrahydro-2H-pyran-3,4,5-triol], in the data set on subjects with diabetes (20 mg per day, 96 weeks), the episodes of hypotension entry is “One”, the “hypertension recorded as a TEAE” value worked out at 2 subjects and the hypertensive crisis turned out to be 0 subjects. In addition, the “propensity for producing deleterious reductions in blood pressure” value with subjects with diabetes (mean systolic blood pressure at baseline 127 mm Hg) is listed as “favorably low propensity”. In the data set on subjects with diabetes (setting [3]), the “reduction in diastolic blood pressure” value is “approximately 7 mm Hg” and the “reduction in systolic blood pressure” value is on record as “approximately 12 mm Hg”. Also, the “effect in SHRSP rat” value in data set [1] is given as “protective effects”. Besides, in data set [2] (20 mg tablets, 12 weeks), the “proportion of subjects achieving a seated office DBP≤90 mm Hg” value was determined as 0.65 and the “proportion of subjects achieving a seated office SBP≤140 mm Hg” value is listed as 0.38. Moreover, the “placebo-adjusted change in seated office SBP from baseline” value in data set [2] (20 mg tablets, 12 weeks, 95% confidence interval −6.83, −2.42, p<0.0001) is listed as −4.63 mm Hg. The “placebo-adjusted change in seated office DBP from baseline” value in data set [2] (20 mg tablets, week 12, 95% CI −3.70, −0.91, p=0.0011) is −2.31 mm Hg. Also, the “anti-hypertensive effect over the 24 h ABPM data collection period (hourly change in blood pressure)” value in data set [2] (ABPM) is recorded as “did not show significant waning”. The “placebo-adjusted reduction in ambulatory mean SBP from baseline to week 12” value in data set [2] (ABPM, p=0.0025) was 2.72 mm Hg. For the same compound, in data set [2] (active arm, 12 weeks), the “adverse events by percentage among participants” value is listed as 41.9% and the “adverse events leading to subject withdrawal or treatment discontinuation” value was determined as 1.8%. In data set [2] (active versus placebo arm), the serious adverse events result is reported as “balanced between the arms”. For the same compound, the “treatment effect by ABPM SBP measurement” value in data set [2] (subgroup: concomitant diuretic use, p=0.0021) is given as −5.60 mm Hg. Moreover, the “treatment effect by ABPM SBP measurement” value in data set [2] (subgroup: concomitant β-blocker use, p=0.0012) is listed as −6.26 mm Hg. The “treatment effect by ABPM SBP measurement” value in data set [2] (subgroup: history of diabetes, p=0.0023) is given as −6.07 mm Hg. For the same compound, in data set [2] (subgroup: participants with stage 3 CKD, p=0.0571), the “treatment effect by ABPM SBP measurement” value is recorded as −7.53 mm Hg. Besides, the “treatment effect by ABPM SBP measurement” value in data set [2] (subgroup: use of 3 or more anti-hypertensive medications, p=0.0071) is listed as −5.55 mm Hg. Also, in data set [2] (versus placebo arm, 95% CI 1.13, 2.35, p=0.0094), the “odds ratio for achieving seated office DBP≤90 mm Hg” value is reported as 1.63. The “odds ratio for achieving seated office SBP≤140 mm Hg” value in data set [2] (versus placebo arm, 95% CI 1.32, 2.62, p=0.0004) is 1.86.
